Results from the supplement of paper PMC12463676, “Small-molecule dissolution of stress granules by redox modulation benefits ALS models” (Nature Chemical Biology, 2025).

Key:
[1] = compound: NC(=O)CCCCC1CCSS1 [lipoamide]; assay: thermal stability z-score vs DMSO; higher = more thermally stabilized by treatment; details: HeLa, lipoamide concentration 100 µM
Description: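 Cellular thermal proteome profiling in HeLa cells. Cells were treated with 100 µM lipoamide for 1 h, with or without 1 mM arsenate for a further 1 h, then heated to ten temperatures (37-66.3 °C), and soluble protein was quantified by TMT mass spectrometry relative to 0.1% DMSO controls. The thermal stability score (sum of log2 fold changes minus the abundance score) was transformed to a z-score; mean of n = 3 experiments.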

[2] = compound: O=[As]([O-])(O)O.[K+] [potassium arsenate]; assay: as above; details: HeLa; arsenate concentration 1 mM
Description: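 Cellular thermal proteome profiling in HeLa cells treated with 1 mM arsenate for 1 h (DMSO pretreatment), heated to ten temperatures (37-66.3 °C). Soluble protein was quantified by TMT mass spectrometry relative to DMSO controls; the thermal stability score was transformed to a z-score; mean of n = 3 experiments.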

[3] = arsenate co-treatment: 1 mM arsenate 1 h
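Also: each temperature applied for 3 min, abundance score taken as mean log2 fold change at the two lowest temperatures, z-score obtained by mean subtraction and division by SD.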

Sequence of UniProt Q6NT16 (Q6NT16 whole entry): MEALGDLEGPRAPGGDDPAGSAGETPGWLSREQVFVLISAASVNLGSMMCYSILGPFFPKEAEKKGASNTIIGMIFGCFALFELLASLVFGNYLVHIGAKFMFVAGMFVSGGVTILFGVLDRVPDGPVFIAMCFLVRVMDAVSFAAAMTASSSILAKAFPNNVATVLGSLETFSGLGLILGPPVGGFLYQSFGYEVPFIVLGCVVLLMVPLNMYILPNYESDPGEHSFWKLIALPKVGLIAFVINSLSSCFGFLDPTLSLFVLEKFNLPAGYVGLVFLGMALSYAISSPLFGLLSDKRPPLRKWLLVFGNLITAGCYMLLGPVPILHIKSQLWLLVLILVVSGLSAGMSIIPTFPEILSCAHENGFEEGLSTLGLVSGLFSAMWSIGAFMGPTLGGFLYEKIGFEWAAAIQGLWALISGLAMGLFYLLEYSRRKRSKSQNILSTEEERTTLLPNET
Sequence of UniProt P12236 (P12236 whole entry): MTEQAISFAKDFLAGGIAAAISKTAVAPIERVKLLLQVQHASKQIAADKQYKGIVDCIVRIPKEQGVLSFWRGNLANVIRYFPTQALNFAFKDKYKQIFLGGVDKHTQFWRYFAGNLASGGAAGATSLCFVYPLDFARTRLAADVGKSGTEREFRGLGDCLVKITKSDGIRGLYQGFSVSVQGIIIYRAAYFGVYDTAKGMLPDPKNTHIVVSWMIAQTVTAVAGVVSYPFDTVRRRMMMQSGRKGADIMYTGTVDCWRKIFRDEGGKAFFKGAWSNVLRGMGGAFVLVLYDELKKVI
Sequence of UniProt P55011 (P55011 whole entry): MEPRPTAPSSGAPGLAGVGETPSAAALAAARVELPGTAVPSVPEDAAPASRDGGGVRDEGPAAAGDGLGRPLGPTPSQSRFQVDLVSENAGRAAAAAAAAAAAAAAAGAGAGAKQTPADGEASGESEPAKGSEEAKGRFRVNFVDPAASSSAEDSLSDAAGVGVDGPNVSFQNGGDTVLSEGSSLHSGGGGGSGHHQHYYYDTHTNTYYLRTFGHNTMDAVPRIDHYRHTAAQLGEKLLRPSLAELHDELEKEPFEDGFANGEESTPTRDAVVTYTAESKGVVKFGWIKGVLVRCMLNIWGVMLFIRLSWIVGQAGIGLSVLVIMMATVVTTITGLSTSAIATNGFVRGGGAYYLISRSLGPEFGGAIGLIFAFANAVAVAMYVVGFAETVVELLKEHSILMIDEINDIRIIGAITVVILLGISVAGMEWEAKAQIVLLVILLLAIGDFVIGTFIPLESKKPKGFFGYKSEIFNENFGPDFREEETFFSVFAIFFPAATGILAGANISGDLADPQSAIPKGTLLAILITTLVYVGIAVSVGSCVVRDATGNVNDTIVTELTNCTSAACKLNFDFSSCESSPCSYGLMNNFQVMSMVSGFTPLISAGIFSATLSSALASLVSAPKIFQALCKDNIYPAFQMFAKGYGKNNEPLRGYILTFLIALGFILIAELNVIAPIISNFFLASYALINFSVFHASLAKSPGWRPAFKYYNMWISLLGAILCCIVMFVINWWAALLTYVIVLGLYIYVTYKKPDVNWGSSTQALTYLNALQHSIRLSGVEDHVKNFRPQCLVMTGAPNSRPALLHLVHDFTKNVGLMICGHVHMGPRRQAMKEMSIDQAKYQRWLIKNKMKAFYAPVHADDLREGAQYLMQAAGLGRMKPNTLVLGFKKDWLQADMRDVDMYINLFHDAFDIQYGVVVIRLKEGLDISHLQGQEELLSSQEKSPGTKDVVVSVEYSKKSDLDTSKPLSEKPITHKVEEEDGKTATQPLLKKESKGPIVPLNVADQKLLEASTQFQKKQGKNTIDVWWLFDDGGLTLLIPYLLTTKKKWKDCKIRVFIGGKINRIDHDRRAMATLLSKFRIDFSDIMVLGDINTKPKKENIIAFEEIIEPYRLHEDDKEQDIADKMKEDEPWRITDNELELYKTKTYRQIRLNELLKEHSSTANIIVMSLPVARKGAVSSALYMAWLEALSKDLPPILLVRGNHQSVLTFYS
Sequence of UniProt Q15599 (Q15599 whole entry): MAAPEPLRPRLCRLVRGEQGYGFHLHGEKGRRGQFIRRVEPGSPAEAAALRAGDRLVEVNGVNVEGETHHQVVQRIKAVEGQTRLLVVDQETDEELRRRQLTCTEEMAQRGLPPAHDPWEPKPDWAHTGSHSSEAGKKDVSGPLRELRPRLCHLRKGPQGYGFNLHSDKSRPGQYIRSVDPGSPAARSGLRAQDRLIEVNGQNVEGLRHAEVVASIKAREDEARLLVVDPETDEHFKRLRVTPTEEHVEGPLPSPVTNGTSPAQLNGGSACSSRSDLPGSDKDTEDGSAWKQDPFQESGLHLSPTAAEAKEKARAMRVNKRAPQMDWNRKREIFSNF
Sequence of UniProt Q02978 (Q02978 whole entry): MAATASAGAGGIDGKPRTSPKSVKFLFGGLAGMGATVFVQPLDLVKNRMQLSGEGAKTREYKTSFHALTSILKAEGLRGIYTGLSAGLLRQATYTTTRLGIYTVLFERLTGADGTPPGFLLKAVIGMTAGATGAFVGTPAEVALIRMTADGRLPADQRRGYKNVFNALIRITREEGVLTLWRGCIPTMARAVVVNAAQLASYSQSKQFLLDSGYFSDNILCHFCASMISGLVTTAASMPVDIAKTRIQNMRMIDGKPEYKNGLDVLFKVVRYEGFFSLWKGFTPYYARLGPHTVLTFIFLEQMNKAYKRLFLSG
Sequence of UniProt P05141 (P05141 whole entry): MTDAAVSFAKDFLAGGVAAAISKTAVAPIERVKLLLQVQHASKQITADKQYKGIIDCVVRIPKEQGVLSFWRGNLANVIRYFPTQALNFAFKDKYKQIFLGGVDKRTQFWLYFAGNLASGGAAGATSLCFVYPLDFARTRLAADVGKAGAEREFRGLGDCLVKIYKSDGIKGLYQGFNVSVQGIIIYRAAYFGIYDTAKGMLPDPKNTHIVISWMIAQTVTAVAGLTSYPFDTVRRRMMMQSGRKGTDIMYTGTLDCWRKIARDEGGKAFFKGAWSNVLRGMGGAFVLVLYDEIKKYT
Sequence of UniProt O00400 (O00400 whole entry): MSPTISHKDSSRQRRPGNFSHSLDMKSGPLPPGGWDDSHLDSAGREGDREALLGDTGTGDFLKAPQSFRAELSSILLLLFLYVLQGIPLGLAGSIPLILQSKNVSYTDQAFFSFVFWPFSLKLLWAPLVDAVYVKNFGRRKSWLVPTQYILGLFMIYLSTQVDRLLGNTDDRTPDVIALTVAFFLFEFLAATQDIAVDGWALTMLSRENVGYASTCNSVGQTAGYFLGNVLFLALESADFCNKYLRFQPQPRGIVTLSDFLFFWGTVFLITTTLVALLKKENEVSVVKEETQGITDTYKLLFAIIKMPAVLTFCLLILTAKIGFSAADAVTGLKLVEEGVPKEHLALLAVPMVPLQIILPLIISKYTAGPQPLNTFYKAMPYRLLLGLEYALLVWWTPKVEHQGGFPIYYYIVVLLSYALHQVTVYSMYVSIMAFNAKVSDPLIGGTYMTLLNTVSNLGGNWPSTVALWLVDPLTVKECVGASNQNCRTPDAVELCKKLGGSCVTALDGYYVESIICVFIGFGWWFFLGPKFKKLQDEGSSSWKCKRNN
Sequence of UniProt Q9NTN3 (Q9NTN3 whole entry, looked up): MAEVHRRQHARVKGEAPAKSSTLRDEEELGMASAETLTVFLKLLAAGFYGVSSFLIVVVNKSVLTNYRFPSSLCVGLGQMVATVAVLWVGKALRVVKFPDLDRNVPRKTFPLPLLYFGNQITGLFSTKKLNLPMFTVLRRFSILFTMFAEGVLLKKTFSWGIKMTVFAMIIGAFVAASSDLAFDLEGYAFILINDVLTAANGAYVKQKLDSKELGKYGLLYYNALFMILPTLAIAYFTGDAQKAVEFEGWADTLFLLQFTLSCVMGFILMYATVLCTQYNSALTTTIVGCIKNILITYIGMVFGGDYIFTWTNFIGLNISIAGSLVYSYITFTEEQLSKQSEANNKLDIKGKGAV
Sequence of UniProt Q9UHW9 (Q9UHW9 whole entry): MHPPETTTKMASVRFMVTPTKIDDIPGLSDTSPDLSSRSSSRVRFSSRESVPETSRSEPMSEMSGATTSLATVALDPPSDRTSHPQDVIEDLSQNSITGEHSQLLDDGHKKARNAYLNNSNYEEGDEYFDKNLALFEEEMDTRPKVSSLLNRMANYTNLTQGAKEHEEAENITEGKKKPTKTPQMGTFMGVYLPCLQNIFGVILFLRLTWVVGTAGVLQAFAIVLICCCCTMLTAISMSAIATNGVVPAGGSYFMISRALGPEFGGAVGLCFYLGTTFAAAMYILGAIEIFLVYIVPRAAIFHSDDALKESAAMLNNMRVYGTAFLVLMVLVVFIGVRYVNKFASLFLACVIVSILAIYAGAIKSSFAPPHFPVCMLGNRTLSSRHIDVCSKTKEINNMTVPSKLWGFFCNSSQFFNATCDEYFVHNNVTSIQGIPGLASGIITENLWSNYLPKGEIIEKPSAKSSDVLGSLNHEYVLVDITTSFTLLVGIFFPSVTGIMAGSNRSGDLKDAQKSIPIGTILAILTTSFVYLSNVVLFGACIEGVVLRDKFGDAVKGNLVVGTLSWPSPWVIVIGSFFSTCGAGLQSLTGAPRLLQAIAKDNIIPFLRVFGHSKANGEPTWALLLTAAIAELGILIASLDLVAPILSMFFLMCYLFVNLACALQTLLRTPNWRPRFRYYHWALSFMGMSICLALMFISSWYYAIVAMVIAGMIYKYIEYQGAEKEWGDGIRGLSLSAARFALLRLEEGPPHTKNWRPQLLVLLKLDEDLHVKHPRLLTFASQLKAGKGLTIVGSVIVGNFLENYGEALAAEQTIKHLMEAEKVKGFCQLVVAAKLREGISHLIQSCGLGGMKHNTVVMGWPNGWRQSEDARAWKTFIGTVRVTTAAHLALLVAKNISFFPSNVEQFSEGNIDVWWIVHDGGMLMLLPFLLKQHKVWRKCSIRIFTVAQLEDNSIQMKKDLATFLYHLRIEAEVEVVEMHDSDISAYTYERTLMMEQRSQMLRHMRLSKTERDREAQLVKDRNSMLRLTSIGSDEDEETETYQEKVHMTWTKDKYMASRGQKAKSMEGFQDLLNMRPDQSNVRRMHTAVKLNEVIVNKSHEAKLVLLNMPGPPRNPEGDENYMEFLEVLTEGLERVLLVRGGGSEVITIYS

| Target | thermal stability z-score [1, 3] | thermal stability z-score ([1]; arsenate co-treatment: none) | thermal stability z-score [2] |
| --- | --- | --- | --- |
| SLC7A6OS (UniProt Q96CW6) | -0.344 | 0.403 | -0.000281 |
| SLC7A11 (UniProt Q9UPY5) | 0.242 | 0.155 | -0.0447 |
| SLC9A1 (UniProt P19634) | -0.174 | -0.629 | 0.274 |
| SLC9A3R1 (UniProt O14745) | 0.348 | 0.362 | -0.36 |
| SLC9A3R2 (UniProt Q15599) | -0.0651 | 0.332 | -0.923 |
| SLC9A6 (UniProt Q92581) | -0.145 | -0.0692 | -0.165 |
| SLC11A2 (UniProt P49281) | -1.6 | -0.179 | 0.512 |
| SLC12A2 (UniProt P55011) | -0.435 | -0.195 | -0.72 |
| SLC12A4 (UniProt Q9UP95) | -0.481 | -1.18 | -0.606 |
| SLC12A6 (UniProt Q9UHW9) | -0.454 | -0.27 | 0.131 |
| SLC15A4 (UniProt Q8N697) | 0.836 | 0.0913 | -0.239 |
| SLC16A1 (UniProt P53985) | 0.774 | 1.02 | 0.385 |
| SLC16A3 (UniProt O15427) | 0.645 | 0.712 | 0.351 |
| SLC17A5 (UniProt Q9NRA2) | 0.265 | 0.076 | -0.982 |
| SLC18B1 (UniProt Q6NT16) | -0.405 | -0.045 | -0.173 |
| SLC19A1 (UniProt P41440) | -0.381 | -0.505 | 0.0431 |
| SLC20A1 (UniProt Q8WUM9) | 0.249 | 0.0269 | -0.23 |
| SLC22A18 (UniProt Q96BI1) | 0.00763 | -0.34 | -0.0251 |
| SLC25A1 (UniProt P53007) | 1.03 | 0.6 | 0.43 |
| SLC25A3 (UniProt Q00325) | 0.802 | 0.951 | 0.572 |
| SLC25A4 (UniProt P12235) | -0.0513 | 0.0728 | 0.373 |
| SLC25A5 (UniProt P05141) | 0.657 | 0.589 | 0.562 |
| SLC25A6 (UniProt P12236) | 0.809 | 0.762 | 0.433 |
| SLC25A11 (UniProt Q02978) | 0.183 | 0.431 | 0.593 |
| SLC25A12 (UniProt O75746) | -0.149 | -0.154 | -0.0761 |
| SLC25A13 (UniProt Q9UJS0) | -0.445 | -0.77 | -0.312 |
| SLC25A15 (UniProt Q9Y619) | 0.309 | 0.0332 | 0.22 |

| Target | thermal stability z-score [1, 3] | thermal stability z-score ([1]; arsenate co-treatment: none) | thermal stability z-score [2] |
| --- | --- | --- | --- |
| SLC25A17 (UniProt O43808) | -0.416 | -0.577 | -0.824 |
| SLC25A19 (UniProt Q9HC21) | -0.0932 | 0.281 | -0.374 |
| SLC25A20 (UniProt O43772) | 2.62 | 0.0858 | -0.0934 |
| SLC25A22 (UniProt Q9H936) | -0.147 | 0.0868 | -0.472 |
| SLC25A24 (UniProt Q6NUK1) | -0.0911 | -0.127 | 0.205 |
| SLC25A28 (UniProt Q96A46) | 0.65 | 0.529 | 1.81 |
| SLC25A29 (UniProt Q8N8R3) | 0.136 | -0.0401 | -0.111 |
| SLC25A32 (UniProt Q9H2D1) | -0.958 | -1.17 | -0.601 |
| SLC25A35 (UniProt Q3KQZ1) | 0.135 | -0.276 | 0.172 |
| SLC25A36 (UniProt Q96CQ1) | 0.659 | 0.329 | -0.241 |
| SLC25A46 (UniProt Q96AG3) | -0.105 | 0.322 | 0.109 |
| SLC26A6 (UniProt Q9BXS9) | 0.538 | 1.4 | 0.375 |
| SLC27A2 (UniProt O14975) | -0.257 | -0.484 | 0.45 |
| SLC27A4 (UniProt Q6P1M0) | -0.824 | -0.358 | -0.197 |
| SLC29A1 (UniProt Q99808) | 0.272 | 0.818 | 0.277 |
| SLC30A1 (UniProt Q9Y6M5) | 0.17 | 0.0172 | -0.906 |
| SLC30A5 (UniProt Q8TAD4) | -0.202 | -0.453 | -0.849 |
| SLC30A7 (UniProt Q8NEW0) | -1.48 | -1.78 | 0.418 |
| SLC30A9 (UniProt Q6PML9) | 1.14 | 1.13 | 1.17 |
| SLC31A1 (UniProt O15431) | 0.126 | 0.215 | 0.321 |
| SLC33A1 (UniProt O00400) | 0.69 | 1.25 | 0.345 |
| SLC35B2 (UniProt Q8TB61) | -0.113 | -0.134 | 0.579 |
| SLC35D1 (UniProt Q9NTN3) | -2.29 | -2.36 | -1.34 |
| SLC35E1 (UniProt Q96K37) | -2.03 | -1.92 | -1.27 |
| SLC35F6 (UniProt Q8N357) | -0.707 | -0.328 | -0.279 |
| SLC37A4 (UniProt O43826) | 1.26 | -0.205 | -0.212 |
| SLC38A1 (UniProt Q9H2H9) | 0.457 | 0.549 | 1.25 |
